According to patent US20260345798A1, “COMPOUNDS AND METHODS OF USE THEREOF” (Virginia Commonwealth University, priority 2023, published 2026):
Residues, ends and D or L forms follow the SMILES beside them.

Columns and labels:
[1] = biological target: PDZ tandem protein Harmonin (Homo sapiens, UniProt Q9Y6N9); assay: Binding to other PDZ domains: Harmonin; settings: 36% identity to PDZ2 and 31% to PDZ1 of MDA-9/Syntenin
[2] = test system: X11/mint scaffold protein; assay: Binding to other PDZ domains: X11/mint; settings: 33% identity with PDZ1
[3] = test system: primary normal human epidermal melanocytes (NHEM); assay: MTT and colony formation assays in normal human melanocytes; type: cell-based
Procedure: FIG. 2A is a histogram showing the results of an MTT assay of normal human melanocytes treated with varying concentrations of IVMT-Rx-3.
FIG. 2B is a histogram showing the results of a colony formation assay of normal human melanocytes treated with varying concentrations of IVMT-Rx-3. Two-hundred cells were plated on 60-mm dishes, treated with IVMT-Rx-3 at different doses. Every third day, culture media was replaced with fresh IVMT-Rx-3-containing media. After two weeks, colonies were stained, counted and graphs plotted.
(§1) The effect of IVMT-Rx-3 on primary normal human epidermal melanocyte cell growth and survival was determined after short term (24 hr., growth assays) (FIG. 2A) and long-term exposure (3-week, clonal assays) (FIG. 2B).

[4] = test system: human melanoma cells (established and early passage patient-derived); assay: Proliferation / colony formation of human melanoma cells; type: cell-based; settings: 10 to 50 μM
Text: FIG. 2C is a series of images showing colony formation assays of established human melanoma and patient-derived early passage human melanoma cells treated with IVMT-Rx-3.
FIG. 2D is a series of histograms showing the number of colonies/plate in the colony formation assays described in FIG. 2C. NS: Not statistically significant; Statistically significant p<0.05.
FIG. 2E is a series of histograms showing the number of colonies/plate in colony formation assays of patient-derived early passage human melanoma cells treated with IVMT-Rx-3. NS: Not statistically significant; Statistically significant p<0.05.
as §1

A-375 and C8161.9 cells = assay: Boyden chamber invasion assay, comparison with PDZ1i; type: cell-based, human; settings: 25 μM each
Procedure: (§2) FIG. 11A is a series of photomicrographs taken at 10× magnification showing invasion assays of A-375 cells treated with DMSO vehicle, 25 μM PDZ1i, or 25 μM IVMT-Rx-3, as well as histograms showing quantification of the average percent invasion of three independent experiments±standard deviation. *: Statistical significance (p<0.05).
as §2, with “11B” for “11A”, “C8161.9” for “A-375”, “IVMT-Rx-3 in C8161.9 melanoma cells,” for “IVMT-Rx-3,”
Invasive phenotype was measured using a Boyden Chamber Assay as described previously (6,8,18). Briefly, 25,000 cells were plated on the upper chamber of the trans well in FBS free media and allowed to invade the Matrigel layer towards the bottom chamber supplemented with complete media. Twenty-four hr. after plating, the invaded cells were fixed and counted under a bright field microscope.

MMP-2 and MMP-9 [5] = assay: MMP-2 and MMP-9 protein by Western blotting; type: cell-based, human; settings: Western blot; A-375, C8161.9, 24 hours; FIG. 4B
Procedure: FIG. 4B is a Western blot of C8161.9 and A-375 cells treated with indicated doses of IVMT-Rx-3 for 24 hours. Cell lysates were subjected to Western blotting analysis to determine the expression levels of various signaling proteins (as shown) associated with MDA-9/Syntenin: Src interactions. Western blotting densitometry and relative intensity of protein bands were calculated using Image J software. The values are provided.
Western blotting was performed following a standard protocol as described previously (6,8,18,29). Antibodies used in this study were purchased from Cell Signaling Technology (Boston, MA): p-Src (Y416), total Src, matrix metalloproteinase-2 (MMP-2) and matrix metaloproteinase-9 (MMP-9), focal adhesion kinase (FAK), p IKKα/β (S176/180), total IKK, p P38 (T180/Y182) and total P38. MDA-9/Syntenin antibody was obtained from Abnova Inc. (Taiwan). β-actin (Sigma-Aldrich, St. Louis, MO) was used as an endogenous loading control. Fibronectin was purchased from EMD Millipore (Billerica, MA).

MMP-2 and MMP-9 [6] = assay: MMP-2 and MMP-9 mRNA by qPCR, B16 cells; type: cell-based; settings: B16 mouse melanoma cells
Procedure: FIG. 13C is a series of histograms showing the MMP-2 and MMP-9 mRNA fold change in the cells treated as described in FIG. 13A, as determined by qPCR. *: Statistical significance (p<0.05).
Total cellular RNA was extracted using an RNAeasy kit (Qiagen, Germany) as described previously (8,9). All Taqman probes used in this study were obtained from Applied Biosystems (Applied Biosystems, Foster City, CA). Real time PCR was performed using an ABI ViiA7 fast real-time PCR system (Applied Biosystems, Foster City, CA).

IGFBP-2 = IGFBP-2 ELISA in conditioned media; type: cell-based, human; settings: 10, 25 or 50 μM, 24 hr
Procedure: FIG. 5C is a series of histograms showing the amount of IGFBP-2 secreted from A-375, C8161.9, TPF-19-219, TPF-19-235, and TPF-16-238 cells treated with varying concentrations of IVMT-Rx-3, as measured by ELISA.
IGFBP-2 levels in conditioned media were determined using an IGFBP-2 ELISA kit (R&D systems, USA) according to the manufacturer's instructions (9). Each sample was repeated three times, and represented graphically with GraphPad Prism software.
Insulin Growth Factor Binding Protein-2 (IGFBP-2) has been found in higher levels in the serum of individuals with diverse types of pathological conditions and is very germane in the context of angiogenesis, tumor promotion and chemoresistance (33). Since Src activation is critical for IGFBP-2 induced angiogenesis, a potential suppressive function of IVMT-Rx-3 on IGFBP-2 expression levels was investigated (9). Melanoma cells were treated with different doses (10, 25 or 50 μM) of IVMT-Rx-3 for 24 hr. and levels of IGFBP-2 in the media were determined using ELISA (FIG. 5C). […] Blocking MDA-9/Syntenin expression inhibits the secretion of cytokines/growth factors in breast cancer resulting in the conversion of an immunosuppressive to immunostimulatory microenvironment (23). Accordingly, the level of specific melanoma metastasis-associated cytokines, e.g., IL-6, IL-10, IL-16, following treatment with IVMT-Rx-3 was analyzed. […]

PDZ tandem protein Harmonin, sequence (Q9Y6N9 whole entry, the tested form may be a part): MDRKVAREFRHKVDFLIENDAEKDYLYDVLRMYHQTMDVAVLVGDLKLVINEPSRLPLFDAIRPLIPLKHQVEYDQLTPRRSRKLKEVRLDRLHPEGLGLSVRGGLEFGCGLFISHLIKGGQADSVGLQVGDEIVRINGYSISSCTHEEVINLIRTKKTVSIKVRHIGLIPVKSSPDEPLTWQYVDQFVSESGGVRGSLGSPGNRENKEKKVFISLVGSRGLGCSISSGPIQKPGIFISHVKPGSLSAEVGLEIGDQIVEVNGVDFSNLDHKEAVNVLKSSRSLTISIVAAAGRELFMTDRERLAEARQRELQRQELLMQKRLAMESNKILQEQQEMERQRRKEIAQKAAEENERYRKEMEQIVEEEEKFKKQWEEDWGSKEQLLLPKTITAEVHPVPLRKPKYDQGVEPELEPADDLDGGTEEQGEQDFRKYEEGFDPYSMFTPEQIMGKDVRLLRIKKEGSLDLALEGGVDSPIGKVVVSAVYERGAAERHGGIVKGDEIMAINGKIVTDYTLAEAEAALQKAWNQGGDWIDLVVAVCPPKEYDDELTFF

In the case of Cc1cc(NC(=O)c2nc3[nH]c4c(c(=O)n3n2)CCC4)c(C)cc1NC(=O)CCOCCC(=O)N[C@H](C(=O)N[C@@H](CC(N)=O)C(=O)N[C@@H](CCC(=O)O)C(=O)N[C@@H](Cc1ccc(O)cc1)C(=O)N[C@@H](Cc1ccc(O)cc1)C(=O)N[C@H](C(=O)O)C(C)C)[C@@H](C)O [IVMT-Rx-3] (HELM PEPTIDE1{[Cc1cc(NC(=O)c2nc3[nH]c4c(c(=O)n3n2)CCC4)c(C)cc1NC(=O)CCOCCC(=O)[*:2]].T.N.E.Y.Y.V}$$$$V2.0), the “binding to Harmonin” value [1] is reported as “did not bind appreciably”, the “binding to X11/mint scaffold protein” value [2] is reported as “did not bind appreciably” and the “effect on cell proliferation on repeated treatment” value ([3]; 50 μM, repeated treatment, FIG. 2A and 2B) is reported as “did not show any effect on cell proliferation”. For the same compound, the “toxicity in primary melanocytes” value ([3]; 50 μM, 24 hr growth assay and 3-week clonal assay) was “No significant toxicity”, the “toxicity in early passage normal human melanocytes” value ([3]; summary statement) was “without provoking toxicity” and the “effect on cell proliferation in NHEM (MTT assay)” value ([3]; varying concentrations, FIG. 2A) was “lack of effect”. The “inhibition of proliferation or long-term survival” value [4] was “did not inhibit proliferation or long-term survival”, the “anti-invasive efficacy in comparison with PDZ1i” value (A-375 and C8161.9 cells) was “significantly enhanced the anti-invasive efficacy in comparison with PDZ1i” and the “MMP-2 and MMP-9 expression (translational level)” value (MMP-2 and MMP-9 [5]) was “down regulation”. For the same compound, the “expression of MMP-2 and MMP-9” value (MMP-2 and MMP-9 [6]) was “lower expression of MMP-2 and MMP-9” and the “IGFBP-2 in tumor-derived media” value (IGFBP-2) was “dose-dependent downregulation”.
